Target: MoLOX (Pyricularia oryzae, UniProt G4NAP4)
Conditions: read-out: KMμM

Sequence of MoLOX (G4NAP4 17-619 limits assumed): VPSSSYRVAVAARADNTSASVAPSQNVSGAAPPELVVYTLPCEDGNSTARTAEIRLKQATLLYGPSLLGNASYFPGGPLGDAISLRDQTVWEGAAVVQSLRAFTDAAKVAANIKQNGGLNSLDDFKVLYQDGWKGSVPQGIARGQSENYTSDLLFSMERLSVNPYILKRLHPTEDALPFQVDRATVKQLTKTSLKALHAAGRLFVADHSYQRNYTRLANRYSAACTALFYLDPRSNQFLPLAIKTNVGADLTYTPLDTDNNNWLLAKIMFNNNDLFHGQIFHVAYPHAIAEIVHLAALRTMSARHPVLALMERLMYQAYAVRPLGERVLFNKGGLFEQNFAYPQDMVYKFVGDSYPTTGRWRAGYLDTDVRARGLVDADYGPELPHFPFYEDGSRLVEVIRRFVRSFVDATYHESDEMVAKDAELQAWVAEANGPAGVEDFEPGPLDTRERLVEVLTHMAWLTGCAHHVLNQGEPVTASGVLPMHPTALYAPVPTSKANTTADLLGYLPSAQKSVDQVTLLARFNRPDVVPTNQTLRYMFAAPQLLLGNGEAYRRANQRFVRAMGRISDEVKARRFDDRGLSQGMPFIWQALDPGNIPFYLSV

In the case of `CCCCC/C=C\C/C=C\CCCCCCCC(=O)O` [LA, linoleic acid], the Km is reported as 14 ± 2 µM.

From publication PMC10704959 (Biochemistry, 2023)
